Results reported in US20090118135A1, “METHODS AND COMPOUNDS FOR REGULATING APOPTOSIS” (The Burnham Institute, priority 2007, published 2009).
Where two headings read alike, the source gives them in different places.

Molecular target: T1, GST-Bcl-B (Homo sapiens, UniProt Q9HD36)
T1 sequence (Q9HD36 1-182 limits assumed): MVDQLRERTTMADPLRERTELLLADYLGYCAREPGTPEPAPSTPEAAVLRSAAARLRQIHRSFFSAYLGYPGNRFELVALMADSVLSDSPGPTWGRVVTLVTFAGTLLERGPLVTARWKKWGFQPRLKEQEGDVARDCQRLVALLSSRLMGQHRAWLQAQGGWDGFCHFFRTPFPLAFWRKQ
Assay: Bcl-B/FITC-TR3-r8 fluorescence polarization competition (displacement) assay, HTS and dose-response

[1] = Table 7, NCI Mechanistic library, Binding Assay, FP, Concentration 0.02 uM
[2] = read-out: Result Value (Result Type % Inhibition), BCL-b/TR3
[3] = Table 8, NCI Structural library, Binding Assay, FP, Concentration 0.02 uM
[4] = LOPAC1280 library primary screen
[5] = LOPAC1280 library, fluorescence intensity normalized to plate negative controls
[6] = read-out: Result Value (% Inhibition)
[7] = read-out: Result Value (% Inhibition), LOPAC1280 (Sigma-Aldrich) library, BCL-b/TR3 Binding Assay, FP, Concentration 0.02 uM, % competition

Structure (SMILES)	Is Hit [1]	Is Hit [4]	F Ratio [5]	inhibition at 0.02 µM [6] [%]	also measured
COc1ccc2c(c1)-c1nn(CCCN(C)C)c3ccc([N+](=O)[O-])c(c13)N2 [Compound 627168]	Yes				F Ratio [1]: 0.1807; inhibition at 0.02 µM (read-out: Result Value (Result Type % Inhibition), BCL-b/TR3, Table 7, NCI Mechanistic library, Binding Assay, FP, Concentration 0.02 uM): 64.4%
O=S(=O)(O)c1cc(/N=N/c2cc(S(=O)(=O)O)c3cccnc3c2O)ccc1/C=C/c1ccc(/N=N/c2cc(S(=O)(=O)O)c3cccnc3c2O)cc1S(=O)(=O)O [Compound 635352]	Yes				F Ratio [1]: 0.04471; inhibition at 0.02 µM [2]: 94%
O=C1C=C(N2CCNCC2)C(=O)c2c(O)ccc(O)c21 [Compound 658144]	Yes				
O=C1C(Br)=C(N2CCN(CCOCCO)CC2)C(=O)c2c(O)ccc(O)c21 [Compound 659999]	Yes				
O=C1C=C(NCCc2cc(Br)c(O)c(Br)c2)C(=O)c2ncccc21 [Compound 668394]					F Ratio [3]: 0.1777; Is Hit [3]: Yes; inhibition at 0.02 µM [2]: 81.8%
CN(C)CCc1c2c(nc3ccccc13)C(=O)c1cccnc1C2=O [Compound 680734]	Yes				F Ratio [1]: 0.1433; inhibition at 0.02 µM [2]: 82.6%
CN(C)c1ccc(/C=c2\c3n(c4ccccc24)N(C)C(c2ccc(Cl)cc2)C=3)cc1.O=S(=O)(O)C(F)(F)F (centres unmarked) [Compound 699479]	Yes				F Ratio [1]: 0.1793; inhibition at 0.02 µM [2]: 60.6%
C=CCN1C(=O)NC(=O)/C(=C/c2cccn2-c2cccc([N+](=O)[O-])c2)C1=O [Compound 5987504]					IC50 (Bcl-B IC50 (g/L)): 5.59 µM; IC50 (Bcl-B IC50 (uM)): 5.36 µM; Bcl-B H Coefficient (Hill coefficient of Bcl-B dose-response curve): 1.773
O=[N+]([O-])c1cc(O)c(O)c([N+](=O)[O-])c1 [Compound D-131]		Yes	0.1464		Result Value (% Inhibition) (LOPAC1280 (Sigma-Aldrich) library, BCL-b/TR3 Binding Assay, FP, Concentration 0.02 uM, % competition): 68.095%
O=C(c1cc(O)c(O)c([N+](=O)[O-])c1)c1ccccc1F [Compound R-108]		Yes	0.1164	69.6	
Nc1c(S(=O)(=O)O)cc(Nc2ccc(Nc3nc(Cl)nc(Nc4ccc(S(=O)(=O)O)cc4)n3)c(S(=O)(=O)O)c2)c2c1C(=O)c1ccccc1C2=O [Compound R-115]		Yes	0.1652	80.8	
CN(N=O)c1cc(O)ccc1O [D 8065]		Yes	0.1152		inhibition at 0.02 µM [7]: 95.3%
NC(Cc1cc(O)c(O)cc1O)C(=O)O (centres unmarked) [H 2380]				136	F Ratio: 0.06315; Is Hit: Yes
O=c1cc(O)cc(/C=C/c2ccc(O)c(O)c2)o1 [H 5257]		Yes	0.0971	77	
O=C1c2c(O)ccc(O)c2C(=O)c2c(NCCNCCO)ccc(NCCNCCO)c21 [M 6545]		Yes	1.1021	148	
O=c1c(O)c(-c2cc(O)c(O)c(O)c2)oc2cc(O)cc(O)c12 [M 6750]		Yes	0.1247	61	
CN(N=O)c1ccc(O)c(O)c1 [M 9440]		Yes	0.08483		inhibition at 0.02 µM [7]: 121%
O=C(Nc1cc(C(=O)Nc2ccc(S(=O)(=O)O)cc2S(=O)(=O)O)cc(C(=O)Nc2ccc(S(=O)(=O)O)cc2S(=O)(=O)O)c1)Nc1cc(C(=O)Nc2ccc(S(=O)(=O)O)cc2S(=O)(=O)O)cc(C(=O)Nc2ccc(S(=O)(=O)O)cc2S(=O)(=O)O)c1 [N 4784]		Yes	1.0398	64.7	
